“And” between values parts separate entries of the source, which are not always exact repeats. Equal entries are not always repeated. Bounds are passed on as bounds.

ED50 and Ki data for 6 compounds are collected here from ChEMBL document CHEMBL1144408, “Novel atypical antipsychotic agents: rational design, an efficient palladium-catalyzed route, and pharmacological studies” (J Med Chem, 2005).

The subject of test [1] is Rattus norvegicus. The test is described as follows: In vivo effective dose against catalepsy response was determined in rats. The class given is functional.
For test [2], the system named is Rattus norvegicus. The test is described as follows: In vivo effective dose was determined against apomorphine climbing in rats. The class given is functional.
Test [3] has as its system Rattus norvegicus. The test is described as follows: In vivo effective dose of compound against 5-MeO-DMT induced head twitches in rats. It counts as functional.
In test [4] the test system is Rattus norvegicus. The test is described as follows: In vivo effective dose against 5-MeO-DMT-induced head twitches in rats was determined. The class given is functional.
Test [5] is filed under the species Rattus norvegicus. The test is described as follows: animal or person.
Description: In vivo effective dose against spontaneous locomotor activity was determined in rats
The target of test [6] is T1, 5-hydroxytryptamine receptor 2C (Rattus norvegicus, UniProt P08909).
T1 sequence (P08909 whole entry): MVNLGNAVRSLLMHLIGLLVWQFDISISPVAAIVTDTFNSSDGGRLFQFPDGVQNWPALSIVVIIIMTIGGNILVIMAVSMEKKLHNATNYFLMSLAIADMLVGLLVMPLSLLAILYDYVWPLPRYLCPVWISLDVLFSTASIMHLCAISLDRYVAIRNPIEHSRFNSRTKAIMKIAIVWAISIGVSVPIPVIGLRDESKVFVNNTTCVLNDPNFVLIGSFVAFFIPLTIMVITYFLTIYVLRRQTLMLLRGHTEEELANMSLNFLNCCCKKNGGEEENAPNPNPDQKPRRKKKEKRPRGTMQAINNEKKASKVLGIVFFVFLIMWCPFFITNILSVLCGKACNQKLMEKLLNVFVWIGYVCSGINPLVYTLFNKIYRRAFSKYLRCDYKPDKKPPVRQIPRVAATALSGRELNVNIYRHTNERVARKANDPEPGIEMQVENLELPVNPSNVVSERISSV
The test is described as follows: Inhibition of [3H]mesulergine binding to rat 5-hydroxytryptamine 2C receptor.

A further test has as its target D(1A) dopamine receptor (Rattus norvegicus, UniProt P18901).
A further test addresses D(3) dopamine receptor (Homo sapiens, UniProt P35462). As to the kind of experiment: biochemical.
The species entered for test [7] is Rattus norvegicus. As to the kind of experiment: animal or person. This is another data set of the same source.
Description: In vivo effective dose against conditioned avoidance response was determined in rats

Sequence of D(3) dopamine receptor (P35462 whole entry): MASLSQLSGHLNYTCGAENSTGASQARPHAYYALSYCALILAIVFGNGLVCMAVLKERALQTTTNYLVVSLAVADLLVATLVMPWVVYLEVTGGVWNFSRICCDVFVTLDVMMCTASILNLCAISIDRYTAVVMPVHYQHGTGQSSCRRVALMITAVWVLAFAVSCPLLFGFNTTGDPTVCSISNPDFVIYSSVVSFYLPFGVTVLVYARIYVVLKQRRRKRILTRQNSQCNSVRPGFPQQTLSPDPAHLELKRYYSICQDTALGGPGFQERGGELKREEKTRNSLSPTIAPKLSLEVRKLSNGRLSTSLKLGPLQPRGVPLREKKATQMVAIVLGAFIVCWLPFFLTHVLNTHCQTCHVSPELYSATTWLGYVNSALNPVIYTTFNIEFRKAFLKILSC
Sequence of D(1A) dopamine receptor (P18901 whole entry): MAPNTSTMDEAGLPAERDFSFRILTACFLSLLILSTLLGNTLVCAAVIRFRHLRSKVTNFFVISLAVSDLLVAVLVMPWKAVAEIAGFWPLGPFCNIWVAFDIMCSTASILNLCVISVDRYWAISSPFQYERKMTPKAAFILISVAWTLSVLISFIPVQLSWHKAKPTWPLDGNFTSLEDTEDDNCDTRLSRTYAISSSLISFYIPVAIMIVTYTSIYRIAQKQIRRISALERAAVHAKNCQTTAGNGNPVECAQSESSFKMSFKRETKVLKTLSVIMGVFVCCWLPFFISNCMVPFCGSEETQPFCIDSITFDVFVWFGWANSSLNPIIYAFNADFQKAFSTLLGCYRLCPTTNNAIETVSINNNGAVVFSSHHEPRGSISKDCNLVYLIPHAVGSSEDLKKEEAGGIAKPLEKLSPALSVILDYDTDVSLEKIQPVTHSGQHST
Description for D(1A) dopamine receptor: Inhibition of [3H]-SCH- 23390 binding to rat dopamine D1 receptor
Description for D(3) dopamine receptor: Inhibition of [3H]7-OH-DPAT binding to Dopamine D3 receptor expressed in Sf9 cells

As to `CN1CCN(C2=Nc3cc(Cl)ccc3Nc3ccccc32)CC1` [CLOZAPINE], the ED50 (in general, the dose at which the effect has come halfway, by size or by number of responders) was > 100 mg/kg and > 306 µmol/kg with Rattus norvegicus [1]; 5.72 mg/kg and 17.5 µmol/kg in the test with Rattus norvegicus [2]; 5.35 mg/kg in the test on Rattus norvegicus [3]; 16.4 µmol/kg with Rattus norvegicus [4].
On to `CN1CCN(C2=Cn3cccc3Sc3ccccc32)CC1`, for which the ED50 with Rattus norvegicus [1] was > 100 mg/kg and > 336 µmol/kg; in the test with Rattus norvegicus [2], 1.64 mg/kg and 5.51 µmol/kg; in the test with Rattus norvegicus [3], 1.99 mg/kg; with Rattus norvegicus [4], 6.69 µmol/kg; in the test listed under Rattus norvegicus [5] it was 0.51 mg/kg.
For the compound `CN1CCN(C2=Cc3cc(Cl)ccc3Cn3cccc32)CC1`, the Ki (commonly the equilibrium dissociation constant of an inhibitor or competing ligand from its target) in [6] came out at 3.8 nM; at D(1A) dopamine receptor, 47.4 nM; on D(3) dopamine receptor, 24.2 nM.
Turning to `CN1CCN(C2=Cn3cccc3Sc3sccc32)CC1`, the Ki at D(1A) dopamine receptor came out at 4.91 nM; on D(3) dopamine receptor, 25 nM.
On to `CN1CCN(C2=Cc3ccccc3Cn3cccc32)CC1`, for which the median effective dose (ED50) in the test on Rattus norvegicus [1] was > 100 mg/kg and > 357 µmol/kg; in the test with Rattus norvegicus [2], 0.5 µmol/kg and 0.14 mg/kg; in the test with Rattus norvegicus [3], 0.12 mg/kg; in the test with Rattus norvegicus [4], 0.43 µmol/kg; in the test listed under Rattus norvegicus [7] it was 0.56 mg/kg and 2 µmol/kg; in the test listed under Rattus norvegicus [5], 1.6 mg/kg and 5.73 µmol/kg. On D(3) dopamine receptor, this compound registered a Ki of 224 nM.
`Cc1ccc2n1Cc1ccccc1C=C2N1CCN(C)CC1`: the Ki in test [6] turned out to be 15 nM; on D(1A) dopamine receptor it was 230 nM; on D(3) dopamine receptor, 88.6 nM.
